Data as given in PubChem BioAssay AID1259407 (Chemical Carcinogenesis Research Information System (CCRIS), 2018).
Calls of active or inactive are those of the source. How the calls were made is not given here.

Test system: CCRIS mutagenicity, Ames/micronucleus/aberration tests
Test: CCRIS mutagenicity studies

SMILES: O=C(O)CN(CCN(CC(=O)O)CC(=O)O)CC(=O)O
- mutagenic call (Test System: AMES SALMONELLA TYPHIMURIUM, Strain/Indicator: TA97, Metabolic Activation: HAMSTER, LIVER, S-9, AROCLOR 1254 (10%), Method: PREINCUBATION): inactive; negative
- mutagenic call (Test System: AMES SALMONELLA TYPHIMURIUM, Strain/Indicator: TA97, Metabolic Activation: HAMSTER, LIVER, S-9, AROCLOR 1254 (30%), Method: PREINCUBATION): inactive; negative
- mutagenic call (Test System: AMES SALMONELLA TYPHIMURIUM, Strain/Indicator: TA97, Metabolic Activation: NONE, Method: PREINCUBATION): inactive; negative
- mutagenic call (Test System: AMES SALMONELLA TYPHIMURIUM, Strain/Indicator: TA97, Metabolic Activation: RAT, LIVER, S-9, AROCLOR 1254 (10%), Method: PREINCUBATION): inactive; negative
- mutagenic call (Test System: AMES SALMONELLA TYPHIMURIUM, Strain/Indicator: TA97, Metabolic Activation: RAT, LIVER, S-9, AROCLOR 1254 (30%), Method: PREINCUBATION): inactive; negative
- mutagenic call (Test System: AMES SALMONELLA TYPHIMURIUM, Strain/Indicator: TA97, Metabolic Activation: S-9, Method: PREINCUBATION): inactive; negative
- mutagenic call (Test System: AMES SALMONELLA TYPHIMURIUM, Strain/Indicator: TA98, Metabolic Activation: HAMSTER, LIVER, S-9, AROCLOR 1254 (10%), Method: PREINCUBATION): inactive; negative
- mutagenic call (Test System: AMES SALMONELLA TYPHIMURIUM, Strain/Indicator: TA98, Metabolic Activation: HAMSTER, LIVER, S-9, AROCLOR 1254 (30%), Method: PREINCUBATION): inactive; negative
- mutagenic call (Test System: AMES SALMONELLA TYPHIMURIUM, Strain/Indicator: TA98, Metabolic Activation: HAMSTER, LIVER, S-9, AROCLOR 1254, Method: STANDARD PLATE): inactive; negative
- mutagenic call (Test System: AMES SALMONELLA TYPHIMURIUM, Strain/Indicator: TA98, Metabolic Activation: NONE, Method: PREINCUBATION): inactive; negative
- mutagenic call (Test System: AMES SALMONELLA TYPHIMURIUM, Strain/Indicator: TA98, Metabolic Activation: NONE, Method: STANDARD PLATE): inactive; negative
- mutagenic call (Test System: AMES SALMONELLA TYPHIMURIUM, Strain/Indicator: TA98, Metabolic Activation: RAT LIVER S-9, PHENOBARBITAL AND BETA-NAPHTHOFLAVONE, Method: PREINCUBATION): inactive; negative
- mutagenic call (Test System: AMES SALMONELLA TYPHIMURIUM, Strain/Indicator: TA98, Metabolic Activation: RAT, LIVER, S-9, AROCLOR 1254 (10%), Method: PREINCUBATION): inactive; negative
- mutagenic call (Test System: AMES SALMONELLA TYPHIMURIUM, Strain/Indicator: TA98, Metabolic Activation: RAT, LIVER, S-9, AROCLOR 1254 (30%), Method: PREINCUBATION): inactive; negative
- mutagenic call (Test System: AMES SALMONELLA TYPHIMURIUM, Strain/Indicator: TA98, Metabolic Activation: RAT, LIVER, S-9, AROCLOR 1254, Method: STANDARD PLATE): inactive; negative
- mutagenic call (Test System: AMES SALMONELLA TYPHIMURIUM, Strain/Indicator: TA100, Metabolic Activation: HAMSTER, LIVER, S-9, AROCLOR 1254 (10%), Method: PREINCUBATION): inactive; negative
- mutagenic call (Test System: AMES SALMONELLA TYPHIMURIUM, Strain/Indicator: TA100, Metabolic Activation: HAMSTER, LIVER, S-9, AROCLOR 1254 (30%), Method: PREINCUBATION): inactive; negative
- mutagenic call (Test System: AMES SALMONELLA TYPHIMURIUM, Strain/Indicator: TA100, Metabolic Activation: HAMSTER, LIVER, S-9, AROCLOR 1254, Method: STANDARD PLATE): inactive; negative
- mutagenic call (Test System: AMES SALMONELLA TYPHIMURIUM, Strain/Indicator: TA100, Metabolic Activation: NONE, Method: PREINCUBATION): inactive; negative
- mutagenic call (Test System: AMES SALMONELLA TYPHIMURIUM, Strain/Indicator: TA100, Metabolic Activation: NONE, Method: STANDARD PLATE): inactive; negative
- mutagenic call (Test System: AMES SALMONELLA TYPHIMURIUM, Strain/Indicator: TA100, Metabolic Activation: RAT LIVER S-9, PHENOBARBITAL AND BETA-NAPHTHOFLAVONE, Method: PREINCUBATION): inactive; negative
- mutagenic call (Test System: AMES SALMONELLA TYPHIMURIUM, Strain/Indicator: TA100, Metabolic Activation: RAT, LIVER, S-9, AROCLOR 1254 (10%), Method: PREINCUBATION): inactive; negative
- mutagenic call (Test System: AMES SALMONELLA TYPHIMURIUM, Strain/Indicator: TA100, Metabolic Activation: RAT, LIVER, S-9, AROCLOR 1254 (30%), Method: PREINCUBATION): inactive; negative
- mutagenic call (Test System: AMES SALMONELLA TYPHIMURIUM, Strain/Indicator: TA100, Metabolic Activation: RAT, LIVER, S-9, AROCLOR 1254, Method: STANDARD PLATE): inactive; negative
- mutagenic call (Test System: AMES SALMONELLA TYPHIMURIUM, Strain/Indicator: TA102, Metabolic Activation: NONE, Method: PREINCUBATION): inactive; negative
- mutagenic call (Test System: AMES SALMONELLA TYPHIMURIUM, Strain/Indicator: TA102, Metabolic Activation: RAT LIVER S-9, PHENOBARBITAL AND BETA-NAPHTHOFLAVONE, Method: PREINCUBATION): inactive; negative
- mutagenic call (Test System: AMES SALMONELLA TYPHIMURIUM, Strain/Indicator: TA102, Metabolic Activation: S-9, Method: PREINCUBATION): inactive; negative
- mutagenic call (Test System: AMES SALMONELLA TYPHIMURIUM, Strain/Indicator: TA104, Metabolic Activation: NONE, Method: PREINCUBATION): inactive; negative
- mutagenic call (Test System: AMES SALMONELLA TYPHIMURIUM, Strain/Indicator: TA104, Metabolic Activation: RAT LIVER S-9, PHENOBARBITAL AND BETA-NAPHTHOFLAVONE, Method: PREINCUBATION): inactive; negative
- mutagenic call (Test System: AMES SALMONELLA TYPHIMURIUM, Strain/Indicator: TA1535, Metabolic Activation: HAMSTER, LIVER, S-9, AROCLOR 1254 (10%), Method: PREINCUBATION): inactive; negative
- mutagenic call (Test System: AMES SALMONELLA TYPHIMURIUM, Strain/Indicator: TA1535, Metabolic Activation: HAMSTER, LIVER, S-9, AROCLOR 1254 (30%), Method: PREINCUBATION): inactive; negative
- mutagenic call (Test System: AMES SALMONELLA TYPHIMURIUM, Strain/Indicator: TA1535, Metabolic Activation: HAMSTER, LIVER, S-9, AROCLOR 1254, Method: STANDARD PLATE): inactive; negative
- mutagenic call (Test System: AMES SALMONELLA TYPHIMURIUM, Strain/Indicator: TA1535, Metabolic Activation: NONE, Method: PREINCUBATION): inactive; negative
- mutagenic call (Test System: AMES SALMONELLA TYPHIMURIUM, Strain/Indicator: TA1535, Metabolic Activation: NONE, Method: STANDARD PLATE): inactive; negative
- mutagenic call (Test System: AMES SALMONELLA TYPHIMURIUM, Strain/Indicator: TA1535, Metabolic Activation: RAT LIVER S-9, PHENOBARBITAL AND BETA-NAPHTHOFLAVONE, Method: PREINCUBATION): inactive; negative
- mutagenic call (Test System: AMES SALMONELLA TYPHIMURIUM, Strain/Indicator: TA1535, Metabolic Activation: RAT, LIVER, S-9, AROCLOR 1254 (10%), Method: PREINCUBATION): inactive; negative
- mutagenic call (Test System: AMES SALMONELLA TYPHIMURIUM, Strain/Indicator: TA1535, Metabolic Activation: RAT, LIVER, S-9, AROCLOR 1254 (30%), Method: PREINCUBATION): inactive; negative
- mutagenic call (Test System: AMES SALMONELLA TYPHIMURIUM, Strain/Indicator: TA1535, Metabolic Activation: RAT, LIVER, S-9, AROCLOR 1254, Method: STANDARD PLATE): inactive; negative
- mutagenic call (Test System: AMES SALMONELLA TYPHIMURIUM, Strain/Indicator: TA1537, Metabolic Activation: HAMSTER, LIVER, S-9, AROCLOR 1254, Method: STANDARD PLATE): inactive; negative
- mutagenic call (Test System: AMES SALMONELLA TYPHIMURIUM, Strain/Indicator: TA1537, Metabolic Activation: NONE, Method: PREINCUBATION): inactive; negative
- mutagenic call (Test System: AMES SALMONELLA TYPHIMURIUM, Strain/Indicator: TA1537, Metabolic Activation: NONE, Method: STANDARD PLATE): inactive; negative
- mutagenic call (Test System: AMES SALMONELLA TYPHIMURIUM, Strain/Indicator: TA1537, Metabolic Activation: RAT LIVER S-9, PHENOBARBITAL AND BETA-NAPHTHOFLAVONE, Method: PREINCUBATION): inactive; negative
- mutagenic call (Test System: AMES SALMONELLA TYPHIMURIUM, Strain/Indicator: TA1537, Metabolic Activation: RAT, LIVER, S-9, AROCLOR 1254, Method: STANDARD PLATE): inactive; negative
- mutagenic call (Test System: AMES SALMONELLA TYPHIMURIUM, Strain/Indicator: TA1538, Metabolic Activation: HAMSTER, LIVER, S-9, AROCLOR 1254, Method: STANDARD PLATE): inactive; negative
- mutagenic call (Test System: AMES SALMONELLA TYPHIMURIUM, Strain/Indicator: TA1538, Metabolic Activation: NONE, Method: STANDARD PLATE): inactive; negative
- mutagenic call (Test System: AMES SALMONELLA TYPHIMURIUM, Strain/Indicator: TA1538, Metabolic Activation: RAT, LIVER, S-9, AROCLOR 1254, Method: STANDARD PLATE): inactive; negative
- mutagenic call (Test System: E. COLI, Strain/Indicator: WP2 UVRA, Metabolic Activation: HAMSTER, LIVER, S-9, AROCLOR 1254, Method: STANDARD PLATE): inactive; negative
- mutagenic call (Test System: E. COLI, Strain/Indicator: WP2 UVRA, Metabolic Activation: HAMSTER, LIVER, S-9, Method: STANDARD PLATE): inactive; negative
- mutagenic call (Test System: E. COLI, Strain/Indicator: WP2 UVRA, Metabolic Activation: MOUSE, LIVER, S-9, AROCLOR 1254, Method: STANDARD PLATE): inactive; negative
- mutagenic call (Test System: E. COLI, Strain/Indicator: WP2 UVRA, Metabolic Activation: MOUSE, LIVER, S-9, Method: STANDARD PLATE): inactive; negative
- mutagenic call (Test System: E. COLI, Strain/Indicator: WP2 UVRA, Metabolic Activation: NONE, Method: STANDARD PLATE): inactive; negative
- mutagenic call (Test System: E. COLI, Strain/Indicator: WP2 UVRA, Metabolic Activation: RAT, LIVER, S-9, AROCLOR 1254, Method: STANDARD PLATE): inactive; negative
- mutagenic call (Test System: E. COLI, Strain/Indicator: WP2 UVRA, Metabolic Activation: RAT, LIVER, S-9, Method: STANDARD PLATE): inactive; negative
- mutagenic call (Test System: E.COLI, Strain/Indicator: WP2UVRA/PKM101, Metabolic Activation: NONE, Method: PREINCUBATION): inactive; negative
- mutagenic call (Test System: E.COLI, Strain/Indicator: WP2UVRA/PKM101, Metabolic Activation: RAT LIVER S-9, PHENOBARBITAL AND BETA-NAPHTHOFLAVONE, Method: PREINCUBATION): inactive; negative
- mutagenic call (Test System: E.COLI, Strain/Indicator: WP2UVRA, Metabolic Activation: NONE, Method: PREINCUBATION): inactive; negative
- mutagenic call (Test System: E.COLI, Strain/Indicator: WP2UVRA, Metabolic Activation: RAT LIVER S-9, PHENOBARBITAL AND BETA-NAPHTHOFLAVONE, Method: PREINCUBATION): inactive; negative
- mutagenic call (Test System: MOUSE LYMPHOMA, Strain/Indicator: L5178Y (TK+/TK-), Metabolic Activation: NONE, Method: SUSPENSION/PLATE): active; positive
- mutagenic call (Test System: Mouse lymphoma, Strain/Indicator: L5178Y (tk+/tk-), Metabolic Activation: None, Method: Suspension/plate): inactive; negative
- mutagenic call (Test System: Mouse lymphoma, Strain/Indicator: L5178Y (tk+/tk-), Metabolic Activation: Rat, Liver, S-9, Aroclor 1254, Method: Suspension/plate): inactive; negative
